{"source": "patent US20130116302A1", "about": "“PHARMACEUTICAL COMPOSITION FOR THE TREATMENT OF CHLAMYDIAL INFECTION” (Max-Planck-Gesellschaft zur Foerderung der Wissenschaften …, priority 2010, published 2013)", "data": [{"test_system": "C. trachomatis L2", "assay": "genome-wide siRNA-based screen in human epithelial cells, formation of Chlamydia infectious progeny", "type": "cell-based", "conditions": "Table 1b, primary screen, genes of nucleotide metabolism", "text": "We performed a genome-wide siRNA-based screen in human epithelial cells to identify host cell factors that are essential for Chlamydia infection using the Qiagen Hu_Genome Set V1.0 and the Human Druggable Genome siRNA Set V2.0. C. trachomatis L2 was used.", "values": [{"substance": "Hs_ENPP1_2: siRNA, target gene ENPP1 (sense TGGGCAAACAGTAGACTTATA; chemistry not given here; the letters are possibly those of the target site)", "Infectivity phenotype upon Knockdown": "down"}, {"substance": "Hs_ENPP3_1: siRNA, target gene ENPP3 (sense CTGGCTGTTAGGAGTAAATCA; chemistry not given here; the letters are possibly those of the target site)", "Infectivity phenotype upon Knockdown": "down"}, {"substance": "Hs_ENPP3_2: siRNA, target gene ENPP3 (sense TAGCAATTTGGTACCTATGTA; chemistry not given here; the letters are possibly those of the target site)", "Infectivity phenotype upon Knockdown": "down"}, {"substance": "Hs_ENPP5_1: siRNA, target gene ENPP5 (sense AAGCATTTAATTCACAGTCAA; chemistry not given here; the letters are possibly those of the target site)", "Infectivity phenotype upon Knockdown": "down"}, {"substance": "Hs_ENPP6_1: siRNA, target gene ENPP6 (sense TTGGATAATTCTATACATAAA; chemistry not given here; the letters are possibly those of the target site)", "Infectivity phenotype upon Knockdown": "down"}, {"substance": "Hs_ENPP6_2: siRNA, target gene ENPP6 (sense CAGGGTGATGTGCATGCTGAA; chemistry not given here; the letters are possibly those of the target site)", "Infectivity phenotype upon Knockdown": "down"}, {"substance": "Hs_ENTPD4_1: siRNA, target gene ENTPD4 (sense CAGCAGGAAGAAGTAGCTAAA; chemistry not given here; the letters are possibly those of the target site)", "Infectivity phenotype upon Knockdown": "down"}, {"substance": "Hs_ENTPD4_2: siRNA, target gene ENTPD4 (sense CAGCAGAAAGCTATTCTGGAA; chemistry not given here; the letters are possibly those of the target site)", "Infectivity phenotype upon Knockdown": "down"}, {"substance": "Hs_GMPR2_11: siRNA, target gene GMPR2 (sense TCCCAAGGCACCAGTACTCTA; chemistry not given here; the letters are possibly those of the target site)", "Infectivity phenotype upon Knockdown": "down"}, {"substance": "Hs_GMPR2_12: siRNA, target gene GMPR2 (sense TTGGACCTTCACATATCTAAA; chemistry not given here; the letters are possibly those of the target site)", "Infectivity phenotype upon Knockdown": "down"}, {"substance": "Hs_GMPS_1: siRNA, target gene GMPS (sense AACAGAGAACTTGAGTGTATT; chemistry not given here; the letters are possibly those of the target site)", "Infectivity phenotype upon Knockdown": "down"}, {"substance": "Hs_GMPS_2: siRNA, target gene GMPS (sense AAGAATTTCCTTTATGATATA; chemistry not given here; the letters are possibly those of the target site)", "Infectivity phenotype upon Knockdown": "down"}, {"substance": "Hs_GUK1_6: siRNA, target gene GUK1 (sense CCCGGCGAGGAGAACGGCAAA; chemistry not given here)", "Infectivity phenotype upon Knockdown": "down"}, {"substance": "Hs_HPRT1_6: siRNA, target gene HPRT1 (sense CCCACGAAGTGTTGGATATAA; chemistry not given here; the letters are possibly those of the target site)", "Infectivity phenotype upon Knockdown": "down"}, {"substance": "Hs_HPRT1_9: siRNA, target gene HPRT1 (sense CCACAGCACTATTGAGTGAAA; chemistry not given here; the letters are possibly those of the target site)", "Infectivity phenotype upon Knockdown": "down"}, {"substance": "Hs_IMPDH1_6: siRNA, target gene IMPDH1 (sense CAGCAGCAGCCAGAAACGATA; chemistry not given here; the letters are possibly those of the target site)", "Infectivity phenotype upon Knockdown": "down"}, {"substance": "Hs_IMPDH1_7: siRNA, target gene IMPDH1 (sense CAGGCGGGCGTCGACGTCATA; chemistry not given here; the letters are possibly those of the target site)", "Infectivity phenotype upon Knockdown": "down"}, {"substance": "Hs_IMPDH2_6: siRNA, target gene IMPDH2 (sense TGGGATCCGGCTAAAGAAATA; chemistry not given here; the letters are possibly those of the target site)", "Infectivity phenotype upon Knockdown": "down"}, {"substance": "Hs_IMPDH2_8: siRNA, target gene IMPDH2 (sense AATGTGGGTCATATTGCGAAA; chemistry not given here; the letters are possibly those of the target site)", "Infectivity phenotype upon Knockdown": "down"}, {"substance": "Hs_ITPA_2: siRNA, target gene ITPA (sense CTGGAGAAGTTAAAGCCTGAA; chemistry not given here; the letters are possibly those of the target site)", "Infectivity phenotype upon Knockdown": "down"}, {"substance": "Hs_ITPA_3: siRNA, target gene ITPA (sense GAGGAGGTCGTTCAGATTCTA; chemistry not given here; the letters are possibly those of the target site)", "Infectivity phenotype upon Knockdown": "down"}, {"substance": "Hs_NME1_5: siRNA, target gene NME1 (sense TTCCGCCTTGTTGGTCTGAAA; chemistry not given here; the letters are possibly those of the target site)", "Infectivity phenotype upon Knockdown": "down"}, {"substance": "Hs_NME1_8: siRNA, target gene NME1 (sense TCCGAAGATCTTCTCAAGGAA; chemistry not given here; the letters are possibly those of the target site)", "Infectivity phenotype upon Knockdown": "down"}, {"substance": "Hs_NME2P1_2: siRNA, target gene NME2P1 (sense CAGGTTGGCAGGAACATCATT; chemistry not given here; the letters are possibly those of the target site)", "Infectivity phenotype upon Knockdown": "down"}, {"substance": "Hs_NME2P1_4: siRNA, target gene NME2P1 (sense CCTGGTGGGCAAGATCATCAA; chemistry not given here; the letters are possibly those of the target site)", "Infectivity phenotype upon Knockdown": "down"}, {"substance": "Hs_NME2_3: siRNA, target gene NME2 (sense TAGAGCATATTTGCCAATAAA; chemistry not given here; the letters are possibly those of the target site)", "Infectivity phenotype upon Knockdown": "down"}, {"substance": "Hs_NME2_6: siRNA, target gene NME2 (sense TGGGCTGGTGAAGTACATGAA; chemistry not given here; the letters are possibly those of the target site)", "Infectivity phenotype upon Knockdown": "down"}, {"substance": "Hs_NME2_22: siRNA, target gene NME2 (sense CAGCACTACATTGACCTGAAA; chemistry not given here; the letters are possibly those of the target site)", "Infectivity phenotype upon Knockdown": "down"}, {"substance": "Hs_NME3_3: siRNA, target gene NME3 (sense CTGCATCGAGGTTGGCAAGAA; chemistry not given here; the letters are possibly those of the target site)", "Infectivity phenotype upon Knockdown": "down"}, {"substance": "Hs_NME3_5: siRNA, target gene NME3 (sense ACGGCCGCCTTGTCAAGTATA; chemistry not given here; the letters are possibly those of the target site)", "Infectivity phenotype upon Knockdown": "down"}, {"substance": "Hs_NPR2_2: siRNA, target gene NPR2 (sense ACCCAACTGAATGAAGAGCTA; chemistry not given here; the letters are possibly those of the target site)", "Infectivity phenotype upon Knockdown": "down"}, {"substance": "Hs_NPR2_8: siRNA, target gene NPR2 (sense CAGCTCAGCCCTGTACATATA; chemistry not given here; the letters are possibly those of the target site)", "Infectivity phenotype upon Knockdown": "down"}, {"substance": "Hs_PAPSS2_1: siRNA, target gene PAPSS2 (sense ATGGAAGGTCCTGACAGATTA; chemistry not given here; the letters are possibly those of the target site)", "Infectivity phenotype upon Knockdown": "down"}, {"substance": "Hs_PDE1A_2: siRNA, target gene PDE1A (sense ACAGAGTGCTATAACTATAAA; chemistry not given here; the letters are possibly those of the target site)", "Infectivity phenotype upon Knockdown": "down"}, {"substance": "Hs_PDE1A_4: siRNA, target gene PDE1A (sense ACACAGAGTGCTATAACTATA; chemistry not given here; the letters are possibly those of the target site)", "Infectivity phenotype upon Knockdown": "down"}, {"substance": "Hs_PDE2A_3: siRNA, target gene PDE2A (sense ACCGCTTTGTACATGAGAATA; chemistry not given here; the letters are possibly those of the target site)", "Infectivity phenotype upon Knockdown": "down"}, {"substance": "Hs_PDE2A_4: siRNA, target gene PDE2A (sense ATCGCGGAGCTGATCTACAAA; chemistry not given here; the letters are possibly those of the target site)", "Infectivity phenotype upon Knockdown": "down"}, {"substance": "Hs_PDE4A_2: siRNA, target gene PDE4A (sense TTCGATCTTGTCTCCAATTAA; chemistry not given here; the letters are possibly those of the target site)", "Infectivity phenotype upon Knockdown": "down"}]}]}
